From patent publication US7262268B2, “Lipopeptide stereoisomers, methods for preparing same, and useful intermediates” (Cubist Pharmaceuticals, Inc., priority 2001, dated 2007)
Converted amounts (≈) assume the structure as drawn. Where two headings read alike, the source gives them in different places.

Experiments:
E. faecalis = type: cell-based
Procedure: (§1) Compounds according to Formula II were tested for antimicrobial activity against a panel of organisms according to standard procedures described by the National Committee for Clinical Laboratory Standards (NCCLS document M7-A5, Vol. 20, No. 2, 2000) except that all testing was performed at 37° C. Compounds were dissolved in 100% dimethyl sulfoxide and were diluted to the final reaction concentration (0.1 μg/mL-100 μg/mL) in microbial growth media. In all cases the final concentration of dimethyl sulfoxide incubated with cells is less than or equal to 1%. For minimum inhibitory concentration (MIC) calculations, 2-fold dilutions of compounds were added to wells of a microtiter plate containing 5×10^4 bacteria cells in a final volume of 100 μL of media (Mueller-Hinton Broth supplemented with 50 mg/L Ca^2+). The optical densities (OD) of the bacterial cells, which measures bacterial cell growth and proliferation, were measured using a commercial plate reader. The MIC value is defined as the lowest compound concentration inhibiting growth of the test organism.

S. aureus = type: cell-based
Procedure: as §1

[1] = Mueller-Hinton Broth supplemented with 50 mg/L Ca2+, 37° C., 2-fold dilutions

Row | Compound | MIC (μg/ml) E. faecalis (E. faecalis; [1]) [µg/mL] | MIC (μg/ml) S. aureus (S. aureus; [1]) [µg/mL] | MIC (μg/ml) E. faecalis (E. faecalis) [µg/mL] | MIC (μg/ml) S. aureus (S. aureus) [µg/mL]
1 | CCCCCCCCCC(=O)N[C@@H](Cc1c[nH]c2ccccc12)C(=O)N[C@@H](CC(N)=O)C(=O)N[C@@H](CC(=O)O)C(=O)N[C@@H]1C(=O)NCC(=O)N[C@@H](CCCN)C(=O)N[C@@H](CC(=O)O)C(=O)N[C@H](C)C(=O)N[C@@H](CC(=O)O)C(=O)NCC(=O)N[C@H](CO)C(=O)N[C@@H](C(C)CC(=O)O)C(=O)N[C@@H](CC(=O)c2ccccc2N)C(=O)O[C@@H]1C (stereo partly shown) [Compound HH] | 100 (≈ 61.7 µM) | 6.25 (≈ 3.86 µM) | – | –
2 | CCCCCCCCCC(=O)N[C@@H](Cc1c[nH]c2ccccc12)C(=O)N[C@H](CC(N)=O)C(=O)N[C@@H](CC(=O)O)C(=O)N[C@@H]1C(=O)NCC(=O)N[C@@H](CCCN)C(=O)N[C@@H](CC(=O)O)C(=O)N[C@H](C)C(=O)N[C@@H](CC(=O)O)C(=O)NCC(=O)N[C@H](CO)C(=O)N[C@@H]([C@H](C)CC(=O)O)C(=O)N[C@@H](CC(=O)c2ccccc2N)C(=O)O[C@@H]1C [Daptomycin] | – | – | 6.26 (≈ 3.86 µM) | 0.78 (≈ 0.481 µM)
